The assay concerns E0771 breast cancer cells. The assay can be described thus: Orthotopic mouse model of bone metastasis using breast cancer E0771 cells (FIG. 10). The format is in vivo, mice. On the procedure: FIGS. 10A-10B. […] Error bars indicate standard error of the mean. […] Also illustrated in this diagram are the corresponding schedules for each treatment administered throughout this study. From tumor implantation, SEQ ID NO: 31 treated groups (2, 3, 6, and 7) were dosed SC (0.3 mg/kg/0.1 μmol/kg in buffer 15 mM succinate, 4% (w/v) D-mannitol, 10 mM hydoxypropyl-beta-cyclodextrin pH 4.4) on Days 5-9, 12-16, 19-23, and 26-29; aPD1 treated groups (3, 5, and 7) were dosed IP (5 mg/kg) on Days 5, 7, 12, and 14; and irradiated groups (4, 5, 6, and 7) received buffer and 5 Gy of X-ray radiation in three sets at the bone on Days 5, 8, and 12. Survival was observed until Day 33, following scheduled sacrifice of remaining mice. At this point, tumor sizes were measured using calipers. […] All groups were significant compared to the control group, so statistical analysis was based on Log-rank (Mantel-Cox) test against group 5 (radiation+aPD1) using GraphPad Prism.
Animal care and treatment: Female C57BL/6J mice (6 weeks-old) were purchased from Oriental Bioservice (Kobe, Japan) and maintained under a 12-hour light/12-hour dark cycle with free access to water and standard mouse diet (CRF diet; Oriental Yeast Co., Ltd, Tokyo Japan). Implantation and drug administration: Mice were orthotopically implanted with E0771 breast cancer cells (Cosmo Bio Tokyo, Japan; 250,000 cells/mouse in RPMI1640 medium (Fujifilm, Tokyo Japan)) in their left mammary gland and E0771 mouse breast cancer cells (500,000 cells/mouse in 50% Matrigel (Corning, NY, USA, #354234)) in their femur. Mice were then randomized into several treatment groups: 1) control (n=5), 2) SEQ ID NO: 31 (n=5), 3) SEQ ID NO: 31 and aPD1 (n=5), 4) radiation (n=6), 5) radiation and aPD1 (n=5), 6) SEQ ID NO: 31 and radiation (n=6), 7) SEQ ID NO: 31, radiation, and aPD1 (n=6). […] Survival was monitored up to Day 33 (FIG. 10B) post cell inoculation, and following scheduled sacrifice of the remaining mice, tumors were harvested, and sizes were measured using calipers. […]

The source of these data is US20240325544A1, “CATIONIC LIPID FOR COVALENT MODIFICATION OF PEPTIDES” (PharmalN Corporation, priority 2023, published 2024).

Bridge positions count the residues as written; N and C are the ends. Square brackets hold non-standard residues; d marks the D form. Peptide text beside a SMILES is read from it. * marks the point of attachment. Palmitoyl = CCCCCCCCCCCCCCCC(=O)*; Dap = NC[C@H](N)C(=O)O; AEEA = NCCOCCOCC(=O)O

As for `CCCCCCCCCCCCCCCC(=O)NCCOCCOCC(=O)NCCOCCOCC(=O)NCCOCCOCC(=O)N[C@@H](CN)C(=O)N[C@@H](CN)C(=O)NCC(=O)N[C@@H](CC(C)C)C(=O)N[C@@H](CO)C(=O)N[C@@H](CCCCN)C(=O)NCC(=O)N[C@H]1CSSC[C@@H](C(=O)O)NC(=O)CNC(=O)[C@H](CC(C)C)NC(=O)CNC(=O)[C@H](CO)NC(=O)[C@H](CCC(N)=O)NC(=O)[C@H](CO)NC(=O)CNC(=O)[C@H]([C@@H](C)CC)NC(=O)[C@H](CCCNC(=N)N)NC(=O)[C@H](CC(=O)O)NC(=O)[C@H](CC(C)C)NC(=O)[C@H](CCCCN)NC(=O)[C@H](CC(C)C)NC(=O)CNC(=O)[C@H](Cc2ccccc2)NC1=O` [SEQ ID NO: 31] ({Palmitoyl-AEEA-AEEA-AEEA}-[Dap][Dap]GLSKGCFGLKLDRIGSQSGLGC-OH; disulfide 8-24; C-terminus assumed), the “Incidence of bone metastasis” value (addition of SEQ ID NO: 31 in all its respective groups) was “reduced the incidence of bone metastasis”. The “Mice tumor free in the bone” value runs as follows: (group 6: SEQ ID NO: 31 + radiation) 5 out of 6; (group 7: SEQ ID NO: 31 + radiation + aPD1) 6 out of 6. Where the note is “group 7: SEQ ID NO: 31 0.3 mg/kg SC + radiation + aPD1, to Day 33”, the “Probability of survival vs group 5 (radiation+aPD1)” value is recorded as “significant improvement in survival”.
